# Marks after values point to notes of the source that are not given here.
# Columns and labels:
# mice = experiment: Lethality during the observation period; assay type: in vivo; details: n=6 mice
# Description: The effects of (±)cis-4,4′-DMAR, (±)trans-4,4′-DMAR and their co-administration were investigated by a protocol widely used in studies of “safety pharmacology” for the preclinical characterization of new molecules in rodents. This protocol includes a series of observational behavioural tests carried out in a consecutive manner that monitor the animal responses up to 5 h after compound injections. In the present study, we reported the observation of physiological (sweating, salivation, core temperature) and neuro-behavioural (detection of psychomotor agitation, spontaneous and stimulated aggressiveness, convulsions) changes occurring in mice after injection of (±)cis-4,4′-DMAR, (±)trans-4,4′-DMAR and their co-administration. Before pharmacological treatment the mouse was placed on a square plate (30 cm× 30 cm) raised from the ground (20 cm) and left free to move on the plate for 10 min (habituation period). The animal was then injected with the vehicle, substances alone ((±)cis-4,4′-DMAR or (±)trans-4,4′-DMAR) or in cis + trans co-administration and placed on the plate. From this moment, the recording time of the physiological and neuro-behavioural responses started, and these were detected in 5-min sessions.
# After the first 5 min, the animal was removed from the plate; the body core temperature was then measured, and the aggression tests were performed. The 5-min observation period was repeated at 15–30–60–90–120–180–240–300. Psychomotor agitation in the mouse was not simply related to an increase in spontaneous locomotion itself, but by an “unusual hyperactivity” which was characterised by rapid and sudden horizontal displacements in all directions, sustained turning behaviour, involuntary falls from the high plate during the evaluation of the tests, stereotyped movements and rearing activity. Mouse sweating and salivation were reported only if present or not. The core temperature was determined using a probe (1 mm diameter) that was gently inserted after lubrication with liquid Vaseline into the rectum of the mouse (to about 2 cm) and left in position until the temperature stabilised (about 10 s). The probe was connected to a digital thermometer. Spontaneous aggressive response was measured based on the number of times a mouse bit a grey cloth put in front of its snout. During the test, each mouse was free to move within the cage. In the case of stimulated aggressiveness, each mouse was manually restrained and held in a supine position following which an object was brought near the mouth. For both spontaneous and stimulated aggressive behaviour tests, a grey cloth was placed in front of the nose of each mouse 10 consecutive times (score 0/10 not aggressive, score 10/10 very aggressive). Convulsions were defined as a loss of righting reflexes for at least 5 s, combined with the presence of body tremors and clonic or tonic limb movements. Deaths caused by 4-4’-DMAR injection occurring during the observation period (5 h) were also reported as frequency (%) and time of death (min). Experiments were conducted inside the LARP (Centralised Preclinical Research Laboratory, University of Ferrara, Ferrara, Italy) in a thermo-stated (temperature 20–22 °C, humidity about 45–55%) and light controlled (about 150 lux) room, in which there was a background noise of about 40 ± 4 dB. The experiments, conducted in blind by trained observers working together in pairs, were videotaped and eventually analysed off-line by a different trained operator. The experiments were performed between 8:30 a.m. and 2:00 p.m.
# Sweating and salivation were expressed as frequency (e.g., % of animals that developed symptoms); psychomotor agitation was expressed as frequency (% of animals) and duration (total time in mins). Core temperature values were expressed as the difference between control temperature (before injection) and temperature following drug administration (Δ°C). […]
# SERT = system: SERT; design: method as in PMID 25331619; details: rat brain tissue, lower potency than (±)cis-4,4′-DMAR; cited from earlier work
SMILES,Lethality Frequency % (n° of mice) (mice; 30 mg/kg i.p.),Lethality Surviving mice % (n° of mice) (mice; 30 mg/kg i.p.),Lethality Time of death (mice; 30 mg/kg i.p.) [min],Lethality Frequency % (n° of mice) (mice; 60 mg/kg i.p.),Lethality Surviving mice % (n° of mice) (mice; 60 mg/kg i.p.),Lethality Time of death (mice; 60 mg/kg i.p.) [min],Lethality Time of death (min) (mice; 60 mg/kg i.p.),Mode of action at SERT (SERT)
"Cc1ccc(C2OC(N)=NC2C)cc1 (stereo not drawn) [cis-4,4’-DMAR, 4-methyl-5-(4-methylphenyl)-4,5-dihydrooxazol-2-amine]",50% (3),50% (3),59.3 ± 2.3,100% (6),0% (0),31.9 ± 5.6,31.9 ± 5.6 ^d min,–
"Cc1ccc(C2OC(N)=NC2C)cc1 (stereo not drawn) [trans-4,4’-DMAR, 4-methyl-5-(4-methylphenyl)-4,5-dihydrooxazol-2-amine]",–,–,–,–,–,–,–,uptake blocker

# From paper PMC8395767, “Worsening of the Toxic Effects of (±)Cis-4,4′-DMAR Following Its Co-Administration with (±)Trans-4,4′-DMAR: Neuro-Behavioural, Physiological, Immunohistochemical and Metabolic Studies in Mice” (International Journal of Molecular Sciences, 2021)
